From article PMC12267109, “The enzyme kinetics of branched‐chain fatty acid synthesis of metazoan fatty acid synthase” (Protein Science : A Publication of the Protein Society, 2025)

How the values were obtained:
[1] = biological target: T1, metazoan fatty acid synthase (mFAS), murine FAS (Mus musculus, UniProt P19096); assay: NADPH consumption assay with purified mFAS; GC-MS of methyl-branched fatty acid products; format: biochemical
T1 construct: gene Fasn; full length mFAS

[2] = biological target: T1, metazoan fatty acid synthase (mFAS), murine FAS; assay: NADPH consumption by purified mFAS, fluorescence; format: biochemical

T1 sequence (P19096 whole entry): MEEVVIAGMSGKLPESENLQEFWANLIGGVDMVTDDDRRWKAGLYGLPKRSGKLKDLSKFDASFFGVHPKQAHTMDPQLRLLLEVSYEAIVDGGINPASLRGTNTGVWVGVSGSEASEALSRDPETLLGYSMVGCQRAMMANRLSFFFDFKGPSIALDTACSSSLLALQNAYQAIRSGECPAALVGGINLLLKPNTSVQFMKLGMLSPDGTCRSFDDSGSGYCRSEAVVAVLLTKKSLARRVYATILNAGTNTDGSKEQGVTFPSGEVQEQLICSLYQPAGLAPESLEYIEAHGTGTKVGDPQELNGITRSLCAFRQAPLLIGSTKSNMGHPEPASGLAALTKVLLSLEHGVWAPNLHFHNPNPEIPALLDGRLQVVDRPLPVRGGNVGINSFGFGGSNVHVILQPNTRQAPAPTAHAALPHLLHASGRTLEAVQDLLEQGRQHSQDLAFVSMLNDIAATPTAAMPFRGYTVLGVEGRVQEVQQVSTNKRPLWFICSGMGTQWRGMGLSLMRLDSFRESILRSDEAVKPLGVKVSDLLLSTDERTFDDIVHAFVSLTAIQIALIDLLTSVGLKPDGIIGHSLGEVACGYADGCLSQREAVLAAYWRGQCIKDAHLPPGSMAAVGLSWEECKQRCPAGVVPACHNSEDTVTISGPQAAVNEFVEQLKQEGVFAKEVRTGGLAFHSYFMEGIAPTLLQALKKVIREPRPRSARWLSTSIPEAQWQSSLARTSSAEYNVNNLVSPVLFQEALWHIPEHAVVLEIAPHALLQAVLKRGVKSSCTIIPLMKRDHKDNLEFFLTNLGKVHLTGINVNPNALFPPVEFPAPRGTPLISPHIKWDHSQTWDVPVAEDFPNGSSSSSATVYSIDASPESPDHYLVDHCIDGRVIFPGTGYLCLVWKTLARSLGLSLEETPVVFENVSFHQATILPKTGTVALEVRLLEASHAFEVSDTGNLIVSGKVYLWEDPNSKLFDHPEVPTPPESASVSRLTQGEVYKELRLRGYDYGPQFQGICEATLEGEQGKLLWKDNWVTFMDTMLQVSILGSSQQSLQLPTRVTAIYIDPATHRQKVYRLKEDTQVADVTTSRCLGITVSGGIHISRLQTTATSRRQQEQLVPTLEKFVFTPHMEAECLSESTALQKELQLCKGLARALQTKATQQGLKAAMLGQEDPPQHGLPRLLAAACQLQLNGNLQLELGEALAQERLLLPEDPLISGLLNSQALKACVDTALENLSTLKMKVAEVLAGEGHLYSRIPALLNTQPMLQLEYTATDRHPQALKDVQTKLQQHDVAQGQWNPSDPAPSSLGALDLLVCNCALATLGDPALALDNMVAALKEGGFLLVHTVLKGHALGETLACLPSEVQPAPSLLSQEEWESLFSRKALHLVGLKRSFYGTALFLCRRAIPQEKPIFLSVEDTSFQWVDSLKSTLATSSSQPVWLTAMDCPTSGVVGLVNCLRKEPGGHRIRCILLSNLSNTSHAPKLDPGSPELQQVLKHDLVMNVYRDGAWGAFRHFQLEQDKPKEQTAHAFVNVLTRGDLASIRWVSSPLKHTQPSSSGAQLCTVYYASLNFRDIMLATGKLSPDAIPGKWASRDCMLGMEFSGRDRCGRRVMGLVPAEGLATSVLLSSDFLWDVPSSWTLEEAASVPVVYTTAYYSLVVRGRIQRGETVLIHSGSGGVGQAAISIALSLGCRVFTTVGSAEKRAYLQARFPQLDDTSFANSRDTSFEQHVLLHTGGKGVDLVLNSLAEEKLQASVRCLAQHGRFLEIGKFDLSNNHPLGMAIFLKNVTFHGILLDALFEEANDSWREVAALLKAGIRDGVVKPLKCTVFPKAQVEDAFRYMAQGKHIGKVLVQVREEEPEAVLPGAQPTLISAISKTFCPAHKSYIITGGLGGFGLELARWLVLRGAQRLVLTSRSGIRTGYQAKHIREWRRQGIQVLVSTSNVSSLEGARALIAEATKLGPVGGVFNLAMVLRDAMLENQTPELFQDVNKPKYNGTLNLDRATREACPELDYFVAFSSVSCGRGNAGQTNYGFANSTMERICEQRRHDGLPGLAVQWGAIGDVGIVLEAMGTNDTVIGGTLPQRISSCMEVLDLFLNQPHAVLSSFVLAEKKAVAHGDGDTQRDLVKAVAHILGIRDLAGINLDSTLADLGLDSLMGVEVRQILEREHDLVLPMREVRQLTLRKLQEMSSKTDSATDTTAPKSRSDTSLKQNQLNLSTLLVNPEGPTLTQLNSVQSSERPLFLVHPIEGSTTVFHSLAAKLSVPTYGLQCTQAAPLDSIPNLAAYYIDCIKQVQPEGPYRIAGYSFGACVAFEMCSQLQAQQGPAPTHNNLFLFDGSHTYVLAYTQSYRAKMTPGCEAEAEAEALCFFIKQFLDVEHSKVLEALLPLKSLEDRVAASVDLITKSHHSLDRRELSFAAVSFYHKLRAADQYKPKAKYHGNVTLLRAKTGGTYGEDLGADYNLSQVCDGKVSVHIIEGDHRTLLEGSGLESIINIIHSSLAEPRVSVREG

`CC(C(=O)O)C(=O)SCCNC(=O)CCNC(=O)[C@H](O)C(C)(C)COP(=O)(O)OP(=O)(O)OC[C@H]1O[C@@H](n2cnc3c(N)ncnc32)[C@H](O)[C@@H]1OP(=O)(O)O` (mixture of isomers) [methylmalonyl-CoA] was tested, and the “NADPH consumption assay with purified mFAS; GC-MS of methyl-branched fatty acid” value [1] was “we observed increasing activity with increasing metmal‐CoA in the absence of starter substrates”.
In the case of `NC(=O)C1=CN([C@@H]2O[C@H](COP(=O)(O)OP(=O)(O)OC[C@H]3O[C@@H](n4cnc5c(N)ncnc54)[C@H](OP(=O)(O)O)[C@@H]3O)[C@@H](O)[C@H]2O)C=CC1` [NADPH], the “NADPH consumption by purified mFAS, fluorescence” value [2] is reported as “(NADPH) consumption of the integrated β‐ketoacyl reductase and enoyl reductase domains”.
